# Laboratory results published in US11311522B1 (Cavion, Inc., priority 2018, dated 2022).
# pEC50, pIC50: −log10 of the molar value.
# Experiments:
# [1] = MR2 capsules fed versus fasted PK; type: in vivo; settings: human, plasma, oral, 8 mg, single dose (1×8 mg) of MR2 CX-8998
# Source text: Subjects will be screened for study eligibility within 28 days before administration of the first dose of study drug. Subjects who meet the study eligibility criteria will be admitted to the clinical research unit in the afternoon of the day before administration of the first dose of study drug (Period 1/Day −1).
# [2] = system: patients with essential tremor; assay: T-CALM: Patient Global Impression of Change (PGIC); type: in vivo, human; settings: for PGIC (rescaled −3 to 3), LS mean (SE) / PGIC, LS mean difference from placebo (95% CI): ANCOVA; for 0 - no change / 1 - minimally improved / 2 - much improved / 3 - very much improved / −1 - minimally worse / −2 - much worse / −3 - very much worse: PGIC
# Source text: Treatment success as measured by PGIC was summarized using descriptive statistics.
# in vivo = settings: male, Beagle, dog, plasma, po, 20 mg/kg/day
# Cav3.2 = biological target: T1, Cav3.2 (Homo sapiens, UniProt O95180); assay: Cav3.2 electrophysiology; type: cell-based; settings: Vh=−80 mV
# T1 construct: expressed in transfected cells
# T1 sequence (O95180 whole entry): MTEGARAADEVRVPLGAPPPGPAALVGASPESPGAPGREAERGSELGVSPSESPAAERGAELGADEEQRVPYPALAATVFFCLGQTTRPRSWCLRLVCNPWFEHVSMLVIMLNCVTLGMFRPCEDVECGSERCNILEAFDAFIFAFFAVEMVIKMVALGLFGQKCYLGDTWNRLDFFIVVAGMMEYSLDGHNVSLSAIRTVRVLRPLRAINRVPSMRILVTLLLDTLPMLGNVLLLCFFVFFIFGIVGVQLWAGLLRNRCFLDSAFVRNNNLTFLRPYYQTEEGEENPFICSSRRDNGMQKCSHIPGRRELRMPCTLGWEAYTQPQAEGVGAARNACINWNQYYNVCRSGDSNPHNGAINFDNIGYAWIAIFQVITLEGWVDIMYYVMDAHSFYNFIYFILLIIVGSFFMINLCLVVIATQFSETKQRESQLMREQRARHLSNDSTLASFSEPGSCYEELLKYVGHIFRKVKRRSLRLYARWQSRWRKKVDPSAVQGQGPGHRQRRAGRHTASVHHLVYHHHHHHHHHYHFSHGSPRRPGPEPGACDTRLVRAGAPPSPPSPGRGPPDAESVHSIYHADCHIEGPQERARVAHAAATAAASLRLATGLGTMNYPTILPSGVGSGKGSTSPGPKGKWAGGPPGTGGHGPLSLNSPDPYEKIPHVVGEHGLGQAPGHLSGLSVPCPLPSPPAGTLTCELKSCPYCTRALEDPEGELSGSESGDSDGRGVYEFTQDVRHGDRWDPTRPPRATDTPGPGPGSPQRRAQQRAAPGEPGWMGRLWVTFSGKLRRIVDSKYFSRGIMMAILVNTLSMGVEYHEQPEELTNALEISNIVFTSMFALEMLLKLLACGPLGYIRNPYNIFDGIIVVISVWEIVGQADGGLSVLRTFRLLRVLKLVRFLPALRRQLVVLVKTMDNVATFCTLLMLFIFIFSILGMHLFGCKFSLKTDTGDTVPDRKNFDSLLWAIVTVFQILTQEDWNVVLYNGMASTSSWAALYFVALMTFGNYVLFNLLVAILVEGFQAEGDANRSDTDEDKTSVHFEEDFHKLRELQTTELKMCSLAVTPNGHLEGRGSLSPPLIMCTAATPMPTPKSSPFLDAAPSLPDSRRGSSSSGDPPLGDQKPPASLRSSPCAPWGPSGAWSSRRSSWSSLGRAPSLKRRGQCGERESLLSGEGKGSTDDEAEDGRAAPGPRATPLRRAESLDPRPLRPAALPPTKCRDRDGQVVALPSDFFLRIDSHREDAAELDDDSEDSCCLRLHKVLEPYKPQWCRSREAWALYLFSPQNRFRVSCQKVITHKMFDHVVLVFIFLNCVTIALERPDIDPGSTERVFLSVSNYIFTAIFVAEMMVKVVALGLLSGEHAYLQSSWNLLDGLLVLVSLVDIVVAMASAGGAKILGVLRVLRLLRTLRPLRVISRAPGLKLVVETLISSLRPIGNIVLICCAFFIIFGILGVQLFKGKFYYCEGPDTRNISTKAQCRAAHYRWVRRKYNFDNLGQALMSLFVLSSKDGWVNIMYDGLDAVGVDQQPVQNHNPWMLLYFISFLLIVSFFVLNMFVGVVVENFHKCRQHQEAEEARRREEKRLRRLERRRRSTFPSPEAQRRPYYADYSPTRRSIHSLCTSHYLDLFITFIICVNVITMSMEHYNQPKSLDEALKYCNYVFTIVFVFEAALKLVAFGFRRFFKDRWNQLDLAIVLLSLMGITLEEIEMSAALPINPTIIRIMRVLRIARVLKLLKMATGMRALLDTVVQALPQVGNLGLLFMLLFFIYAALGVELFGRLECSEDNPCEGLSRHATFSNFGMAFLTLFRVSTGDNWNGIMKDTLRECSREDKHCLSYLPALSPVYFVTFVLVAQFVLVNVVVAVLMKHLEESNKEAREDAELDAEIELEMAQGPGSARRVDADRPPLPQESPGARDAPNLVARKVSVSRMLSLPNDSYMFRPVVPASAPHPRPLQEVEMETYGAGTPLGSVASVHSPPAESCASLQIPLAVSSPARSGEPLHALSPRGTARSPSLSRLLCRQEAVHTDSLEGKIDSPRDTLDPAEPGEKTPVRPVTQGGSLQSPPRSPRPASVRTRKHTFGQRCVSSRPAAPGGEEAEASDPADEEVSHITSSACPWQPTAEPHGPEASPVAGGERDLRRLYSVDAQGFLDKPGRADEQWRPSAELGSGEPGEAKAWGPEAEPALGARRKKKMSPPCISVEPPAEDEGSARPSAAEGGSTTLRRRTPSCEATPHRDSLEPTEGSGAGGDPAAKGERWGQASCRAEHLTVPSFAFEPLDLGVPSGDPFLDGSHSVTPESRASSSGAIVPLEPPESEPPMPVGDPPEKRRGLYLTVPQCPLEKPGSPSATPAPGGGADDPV
# [3] = system: patients with essential tremor; assay: T-CALM: PK/PD, Cmin versus TETRAS-PS (Hill equation); type: in vivo, human
# Source text: Pharmacodynamic variables (Response) evaluated included change from baseline in TETRAS performance subscale, TETRAS activities of daily living, TETRAS total score.
# slow wave activity = assay: PN003: polysomnogram, slow wave activity; type: in vivo, human; settings: 12 mg single dose, 24 subjects, Study PN003
# Description: A washout period of at least 2 weeks separated the treatment periods. […] The PSG recordings were initiated at each subject's habitual bedtime and continued for 8 hours.
# [4] = system: patients with essential tremor; assay: T-CALM: TETRAS performance subscale (TETRAS-PS)
# [5] = Day 28, independent video raters
smiles,measurement,setting,value
CC(C)c1ccc(CC(=O)N[C@H](C)c2ccc(OCC(F)(F)F)cn2)cc1 [CX-8998],AUC,[1],7.57 µM·h
same,"PGIC Improved, percent",[2]; Day 15,66.67%
same,"PGIC No Change, number",[2]; Day 15,11
same,"PGIC No Change, percent",[2]; Day 15,28.2%
same,"PGIC Worsened, number",[2]; Day 15,2
same,"PGIC Worsened, percent",[2]; Day 15,5.12%
same,"PGIC (rescaled −3 to 3), Mean (SD)","[2]; Day 15, N = 39",1 (1.0)
same,"PGIC (rescaled −3 to 3), Median (minimum, maximum)","[2]; Day 15, N = 39","1 (−2, 3)"
same,"PGIC Category 0 No change, patients n (%)","[2]; Day 15, N = 39",11 (28%)
same,"PGIC Category 1 Minimally improved, patients n (%)","[2]; Day 15, N = 39",17 (44%)
same,"PGIC Category 2 Much improved, patients n (%)","[2]; Day 15, N = 39",8 (21%)
same,"PGIC Category 3 Very much improved, patients n (%)","[2]; Day 15, N = 39",1 (3%)
same,"PGIC Category −1 Minimally worse, patients n (%)","[2]; Day 15, N = 39",1 (3%)
same,"PGIC Category −2 Much worse, patients n (%)","[2]; Day 15, N = 39",1 (3%)
same,"PGIC Category −3 Very much worse, patients n (%)","[2]; Day 15, N = 39",0
same,"PGIC (rescaled −3 to 3), LS mean (SE)",[2]; Day 15,0.9 (0.17)
same,"PGIC, LS mean difference from placebo (95% CI)",[2]; Day 15,"0.7 (0.2, 1.1)"
same,"PGIC Improved, number",[2]; Day 28,20
same,"PGIC Improved, percent",[2]; Day 28,54.05%
same,"PGIC No Change, number",[2]; Day 28,14
same,"PGIC No Change, percent",[2]; Day 28,37.84%
same,"PGIC Worsened, number",[2]; Day 28,3
same,"PGIC Worsened, percent",[2]; Day 28,8.11%
same,"PGIC Category 0 No change, patients n (%)","[2]; Day 28, N = 39",14 (36%)
same,"PGIC Category 1 Minimally improved, patients n (%)","[2]; Day 28, N = 39",10 (26%)
same,"PGIC Category 2 Much improved, patients n (%)","[2]; Day 28, N = 39",7 (18%)
same,"PGIC Category 3 Very much improved, patients n (%)","[2]; Day 28, N = 39",3 (8%)
same,"PGIC Category −1 Minimally worse, patients n (%)","[2]; Day 28, N = 39",1 (3%)
same,"PGIC Category −2 Much worse, patients n (%)","[2]; Day 28, N = 39",1 (3%)
same,"PGIC Category −3 Very much worse, patients n (%)","[2]; Day 28, N = 39",1 (3%)
same,"PGIC (rescaled −3 to 3), Mean (SD)","[2]; Day 28, N=37",1 (1.3)
same,"PGIC (rescaled −3 to 3), Median (minimum, maximum)","[2]; Day 28, N=37","1 (−3, 3)"
same,"PGIC (rescaled −3 to 3), LS mean (SE)",[2]; Day 28,0.8 (0.19)
same,"PGIC, LS mean difference from placebo (95% CI)",[2]; Day 28,"0.4 (−0.1, 0.9)"
same,0 - no change,[2]; Day 15,11 (28%) n (%)
same,1 - minimally improved,[2]; Day 15,17 (44%) n (%)
same,2 - much improved,[2]; Day 15,8 (21%) n (%)
same,3 - very much improved,[2]; Day 15,1 (3%) n (%)
same,−1 - minimally worse,[2]; Day 15,1 (3%) n (%)
same,−2 - much worse,[2]; Day 15,1 (3%) n (%)
same,−3 - very much worse,[2]; Day 15,0 n (%)
same,0 - no change,[2]; Day 28,14 (36%) n (%)
same,1 - minimally improved,[2]; Day 28,10 (26%) n (%)
same,2 - much improved,[2]; Day 28,7 (18%) n (%)
same,3 - very much improved,[2]; Day 28,3 (8%) n (%)
same,−1 - minimally worse,[2]; Day 28,1 (3%) n (%)
same,−2 - much worse,[2]; Day 28,1 (3%) n (%)
same,−3 - very much worse,[2]; Day 28,1 (3%) n (%)
same,AUC,in vivo,425 µM·h
same,pIC50,Cav3.2,7.02
same,"Emax, change from baseline in TETRAS-PS",[3]; Cmin at steady state,approximately −4.1
same,pEC50,"[3]; Homo sapiens, TETRAS-PS",~6.60
same,"Slow Wave Activity during the First One-Third of the Sleep Period, Geometric Mean",slow wave activity,26.36 μV^2/Hz
same,"Slow Wave Activity during the First One-Third of the Sleep Period, Raw Value Mean",slow wave activity,30.51 μV^2/Hz
same,"Change from baseline in TETRAS-PS rated by physician, LS mean",[4]; Day 15 (8 mg BID),−3.1
same,"Change from baseline in TETRAS-PS rated by physician, LS mean",[4]; Day 28 (10 mg BID),−4.6
same,TETRAS-PS LS mean difference from placebo (95% CI),[4]; [5],"0.5 (−1.5, 2.5)"
same,"TETRAS-PS total score, Mean (SD)",[4]; [5],21.1 (6.71)
